# Assay results reported in ChEMBL document CHEMBL5120807, “Recent advances in the development of active hybrid molecules in the treatment of cardiovascular diseases” (Bioorg Med Chem, 2022).
# pIC50: −log10 of the molar value.
# Legend:
# [1] = molecular target: Serine/threonine-protein kinase pim-1 (Homo sapiens, UniProt P11309); assay: Inhibition of human PIM1 expressed in bacterial system using histone H1 as substrate incubated for 30 mins by ADP-Glo assay kit method
# [2] = molecular target: Dual specificity protein kinase CLK1 (Mus musculus, UniProt P22518); assay: Inhibition of mouse recombinant CLK1 expressed in bacterial system using GRSRSRSRSRSR as substrate incubated for 30 mins by ADP-Glo assay kit method
# [3] = Antioxidant activity assessed as ABTS radical scavenging activity; format: functional
# [4] = Antagonist activity at beta1-adrenoceptor (unknown origin) at 1 uM; parameters: species or system Homo sapiens
# [5] = molecular target: Cholinesterase (Homo sapiens) (UniProt P06276); assay: Inhibition of BuChE (unknown origin) by Ellman method; conditions: concentration not given here
# Chain of Cholinesterase (Homo sapiens) (P06276 whole entry): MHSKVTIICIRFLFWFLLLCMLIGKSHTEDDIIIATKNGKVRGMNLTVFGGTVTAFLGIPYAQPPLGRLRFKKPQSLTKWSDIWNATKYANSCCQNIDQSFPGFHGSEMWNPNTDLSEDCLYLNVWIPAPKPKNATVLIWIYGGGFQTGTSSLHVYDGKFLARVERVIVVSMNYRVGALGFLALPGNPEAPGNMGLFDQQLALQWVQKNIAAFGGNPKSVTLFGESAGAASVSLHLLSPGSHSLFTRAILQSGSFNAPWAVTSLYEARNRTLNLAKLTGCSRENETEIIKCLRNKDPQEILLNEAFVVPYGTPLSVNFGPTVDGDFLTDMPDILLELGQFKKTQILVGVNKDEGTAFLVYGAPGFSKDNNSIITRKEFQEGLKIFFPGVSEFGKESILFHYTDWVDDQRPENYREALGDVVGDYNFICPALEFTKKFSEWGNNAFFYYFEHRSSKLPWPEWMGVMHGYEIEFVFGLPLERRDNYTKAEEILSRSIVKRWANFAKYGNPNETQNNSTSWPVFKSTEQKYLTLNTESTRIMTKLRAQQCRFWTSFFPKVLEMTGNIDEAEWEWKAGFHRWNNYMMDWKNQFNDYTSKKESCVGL
# Chain of Dual specificity protein kinase CLK1 (P22518 whole entry): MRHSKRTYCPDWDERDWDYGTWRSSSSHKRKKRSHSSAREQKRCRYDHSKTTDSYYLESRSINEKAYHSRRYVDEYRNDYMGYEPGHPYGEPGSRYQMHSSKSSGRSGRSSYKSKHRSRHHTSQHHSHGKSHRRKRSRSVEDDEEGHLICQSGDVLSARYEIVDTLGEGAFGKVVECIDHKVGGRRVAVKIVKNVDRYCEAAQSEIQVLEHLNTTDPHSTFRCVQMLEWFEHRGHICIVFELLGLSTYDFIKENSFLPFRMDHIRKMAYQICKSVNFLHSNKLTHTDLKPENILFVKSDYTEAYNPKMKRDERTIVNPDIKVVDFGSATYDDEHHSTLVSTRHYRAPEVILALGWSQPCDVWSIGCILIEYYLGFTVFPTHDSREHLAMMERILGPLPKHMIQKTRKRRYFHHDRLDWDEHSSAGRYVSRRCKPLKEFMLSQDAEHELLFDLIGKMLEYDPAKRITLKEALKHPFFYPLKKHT
# Chain of Serine/threonine-protein kinase pim-1 (P11309 whole entry): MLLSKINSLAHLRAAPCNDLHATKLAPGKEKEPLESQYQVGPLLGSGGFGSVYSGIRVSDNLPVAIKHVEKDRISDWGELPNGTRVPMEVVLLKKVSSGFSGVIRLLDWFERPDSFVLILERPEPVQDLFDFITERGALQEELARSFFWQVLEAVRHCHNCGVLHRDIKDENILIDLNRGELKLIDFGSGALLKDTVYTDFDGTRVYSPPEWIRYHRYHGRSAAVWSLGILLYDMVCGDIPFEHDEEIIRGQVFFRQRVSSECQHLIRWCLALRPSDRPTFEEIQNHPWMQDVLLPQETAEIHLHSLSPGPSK
Compound,pIC50 [1],pIC50 [2],other results
CN1C(=O)/C(=C2/SC(=S)N(N)C2=O)c2cc(Br)ccc21,6.11,< 5.00,–
CCCCCCCCCCCCCCCCOC(=O)C1=C(C)NC(C)=C(C(=O)OCCCCCCCCCCCCCCCC)C1c1ccccc1[N+](=O)[O-],–,–,pIC50 [3]: 5.61
COc1cc2c(cc1OC)CC(=O)N(CCCN(C)C[C@@H](O)COc1ccccc1C)CC2,–,–,pIC50 [4]: 4.98
NN1C(=O)/C(=C2\C(=O)Nc3ccc(Br)cc32)SC1=S,5.74,5.33,–
COc1cc(/C=C/C(=O)OCCOCCNC(=O)/C=C/c2ccc(OC(C)=O)c(OC(C)=O)c2)ccc1OC(C)=O,–,–,inhibition [5]: 95%
